# Test results published in ChEMBL document CHEMBL2401688, “Phosphinic acid-based inhibitors of tubulin polyglutamylases” (Bioorg Med Chem Lett, 2013).
# Active and inactive are the calls of the source. No cut-off for these calls is given here.
# How the values were obtained:
# [1] = Inhibition of Escherichia coli MurD ligase
# [2] = target: T1, Tubulin--tyrosine ligase (Homo sapiens) (UniProt Q8NG68); test: Inhibition of TTL (unknown origin)
# T1 sequence (whole entry): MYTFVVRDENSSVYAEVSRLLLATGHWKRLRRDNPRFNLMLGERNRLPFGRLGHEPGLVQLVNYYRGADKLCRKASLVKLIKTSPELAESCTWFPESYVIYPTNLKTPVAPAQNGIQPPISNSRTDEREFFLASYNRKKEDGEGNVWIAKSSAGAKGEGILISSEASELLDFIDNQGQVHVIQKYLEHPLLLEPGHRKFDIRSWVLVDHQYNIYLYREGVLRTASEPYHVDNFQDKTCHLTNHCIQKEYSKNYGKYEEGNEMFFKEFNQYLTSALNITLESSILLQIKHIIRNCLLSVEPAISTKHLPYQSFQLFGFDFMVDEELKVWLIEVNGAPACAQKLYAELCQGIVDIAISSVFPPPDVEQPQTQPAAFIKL
# [3] = target: T2, Tubulin polyglutamylase TTLL7 (Mus musculus, UniProt A4Q9F0); test: (§1) Inhibition of mouse recombinant N-terminal GST-tagged TTLL7-mediated Ac-DATAEEEGEFEEEAEEEVA glutamylation expressed in Escherichia coli Rosetta2 DE3 after 16 hrs by LC-MS analysis
# T2 sequence (A4Q9F0 whole entry): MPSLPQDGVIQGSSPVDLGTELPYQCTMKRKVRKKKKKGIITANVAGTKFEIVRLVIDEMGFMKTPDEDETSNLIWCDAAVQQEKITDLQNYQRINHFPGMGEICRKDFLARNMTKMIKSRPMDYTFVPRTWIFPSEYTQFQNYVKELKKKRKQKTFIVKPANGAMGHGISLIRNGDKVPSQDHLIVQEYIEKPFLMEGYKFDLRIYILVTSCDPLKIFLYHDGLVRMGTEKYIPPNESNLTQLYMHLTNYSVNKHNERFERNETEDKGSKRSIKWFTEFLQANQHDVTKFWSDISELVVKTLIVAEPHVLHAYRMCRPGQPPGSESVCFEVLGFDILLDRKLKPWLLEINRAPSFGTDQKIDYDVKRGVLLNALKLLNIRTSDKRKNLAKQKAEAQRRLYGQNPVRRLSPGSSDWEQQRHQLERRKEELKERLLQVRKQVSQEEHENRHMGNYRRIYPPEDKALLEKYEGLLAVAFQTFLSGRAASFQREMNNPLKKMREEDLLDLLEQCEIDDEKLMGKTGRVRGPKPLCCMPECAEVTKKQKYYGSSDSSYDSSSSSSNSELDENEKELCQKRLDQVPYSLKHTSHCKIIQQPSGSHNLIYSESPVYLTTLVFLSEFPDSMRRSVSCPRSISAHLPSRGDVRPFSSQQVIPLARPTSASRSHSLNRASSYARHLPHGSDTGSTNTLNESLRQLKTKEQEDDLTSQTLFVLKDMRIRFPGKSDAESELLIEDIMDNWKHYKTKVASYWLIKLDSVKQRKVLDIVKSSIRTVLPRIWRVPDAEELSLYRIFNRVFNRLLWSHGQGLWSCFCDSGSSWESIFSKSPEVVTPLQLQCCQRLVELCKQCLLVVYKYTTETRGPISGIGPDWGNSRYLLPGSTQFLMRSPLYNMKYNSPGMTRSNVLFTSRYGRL
# [4] = target: T3, Tubulin polyglutamylase TTLL7 (Mus musculus) (UniProt A4Q9F0); test: as §1
# T3 sequence (whole entry): T2 sequence (A4Q9F0 whole entry)
Compound,IC50 [1] [nM],inhibition [2],IC50 [3] [nM],inhibition [4]
CC(=O)N[C@H]1[C@@H](OP(=O)(O)OP(=O)(O)OC[C@H]2O[C@@H](n3ccc(=O)[nH]c3=O)[C@H](O)[C@@H]2O)O[C@H](CO)[C@@H](O)[C@@H]1O[C@H](C)C(=O)N[C@@H](C)P(=O)(O)CC(CCC(=O)O)C(=O)O (stereo partly drawn),1,–,–,–
CC(=O)NC(CCC(=O)O)P(=O)(O)CC(CCC(=O)O)C(=O)O (mixture of isomers),–,inactive,150000,–
CCNC(=O)[C@H](CCP(=O)(O)CC(CCC(=O)O)C(=O)O)NC(C)=O (mixture of isomers),–,inactive,–,Active
CC(NC(=O)CCCCCOP(=O)(O)OP(=O)(O)OC[C@H]1O[C@@H](n2ccc(=O)[nH]c2=O)[C@H](O)[C@@H]1O)P(=O)(O)CC(CCC(=O)O)C(=O)O (stereo partly drawn),700,–,–,–
CC(=O)N[C@@H](CCP(=O)(O)CC(CCC(=O)O)C(=O)O)C(=O)O (mixture of isomers),–,inactive,–,Active
